From patent US20120258993A1, “NON-NATURAL MACROCYCLIC AMIDE HDAC6 INHIBITOR COMPOUNDS AND THEIR USES AS THERAPEUTIC AGENTS” (SIGMA-TAU INDUSTRIE FARMACEUTICHE RIUNITE S.P.A., priority 2009, published 2012)

Key:
Assay in all cases: HDAC enzyme inhibition, fluorogenic peptide substrate
Assay type in all cases: biochemical
Conditions in all cases: purified human enzyme, fluorogenic peptide substrate 10 μM
HDAC1 = HDAC1 (Homo sapiens, UniProt Q13547)
Protocol: (§1) The substrate was incubated with the eleven single HDAC purified enzymes. Upon its deacetylation, the fluorophore was released given rise to fluorescence emission. The latter was detected by a fluorimeter, and the IC50 values of the compounds were determined by analyzing dose-response inhibition curves. TSA and SAHA were used as reference compounds.

HDAC10 = biological target: T1, HDAC10 (Homo sapiens, UniProt Q969S8)
T1 sequence (Q969S8 1-669): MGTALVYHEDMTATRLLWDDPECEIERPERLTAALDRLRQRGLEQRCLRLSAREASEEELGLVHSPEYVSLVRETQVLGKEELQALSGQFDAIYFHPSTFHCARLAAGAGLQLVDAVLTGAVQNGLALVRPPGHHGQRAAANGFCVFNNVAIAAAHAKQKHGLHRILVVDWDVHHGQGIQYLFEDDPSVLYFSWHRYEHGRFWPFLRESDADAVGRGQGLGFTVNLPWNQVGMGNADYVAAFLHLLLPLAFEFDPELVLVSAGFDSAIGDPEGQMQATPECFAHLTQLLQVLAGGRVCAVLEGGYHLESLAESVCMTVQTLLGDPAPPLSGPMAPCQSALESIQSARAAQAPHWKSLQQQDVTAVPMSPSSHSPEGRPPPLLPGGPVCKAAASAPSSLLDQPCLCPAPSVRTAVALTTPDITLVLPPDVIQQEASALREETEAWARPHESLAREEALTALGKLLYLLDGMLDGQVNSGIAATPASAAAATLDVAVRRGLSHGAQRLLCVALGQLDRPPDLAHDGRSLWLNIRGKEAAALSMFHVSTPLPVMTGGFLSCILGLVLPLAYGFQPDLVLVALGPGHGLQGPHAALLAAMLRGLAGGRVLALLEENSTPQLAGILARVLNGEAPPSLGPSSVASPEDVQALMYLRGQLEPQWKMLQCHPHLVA
Protocol: as §1

HDAC11 = biological target: T2, HDAC11 (Homo sapiens, UniProt Q96DB2)
T2 sequence (Q96DB2 1-347): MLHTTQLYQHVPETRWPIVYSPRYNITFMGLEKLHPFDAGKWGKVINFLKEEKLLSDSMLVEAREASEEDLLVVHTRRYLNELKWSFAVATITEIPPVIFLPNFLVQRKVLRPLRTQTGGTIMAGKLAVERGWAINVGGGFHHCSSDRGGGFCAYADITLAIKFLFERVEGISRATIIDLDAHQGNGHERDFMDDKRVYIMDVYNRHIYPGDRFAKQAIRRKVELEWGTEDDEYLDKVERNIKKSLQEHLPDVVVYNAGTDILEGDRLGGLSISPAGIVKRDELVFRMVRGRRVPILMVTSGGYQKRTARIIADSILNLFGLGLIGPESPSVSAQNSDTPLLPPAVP
Protocol: as §1

HDAC2 = HDAC2 (Homo sapiens, UniProt Q92769)
Sequence of HDAC2 (Q92769 whole entry): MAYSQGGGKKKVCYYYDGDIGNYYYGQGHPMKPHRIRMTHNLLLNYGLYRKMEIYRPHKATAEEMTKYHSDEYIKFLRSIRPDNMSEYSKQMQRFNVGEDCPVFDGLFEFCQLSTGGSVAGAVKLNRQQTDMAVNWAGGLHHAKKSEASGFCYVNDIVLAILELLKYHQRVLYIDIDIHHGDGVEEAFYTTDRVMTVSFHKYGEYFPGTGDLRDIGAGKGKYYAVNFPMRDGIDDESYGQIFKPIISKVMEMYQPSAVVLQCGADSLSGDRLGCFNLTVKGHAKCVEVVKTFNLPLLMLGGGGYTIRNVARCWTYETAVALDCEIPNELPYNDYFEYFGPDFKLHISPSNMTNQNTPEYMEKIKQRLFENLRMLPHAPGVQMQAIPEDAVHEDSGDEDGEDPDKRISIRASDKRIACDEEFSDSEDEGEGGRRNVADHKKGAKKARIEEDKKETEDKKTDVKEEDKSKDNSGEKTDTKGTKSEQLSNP
Protocol: as §1

HDAC3 = HDAC3 (Homo sapiens, UniProt O15379)
Sequence of HDAC3 (O15379 whole entry): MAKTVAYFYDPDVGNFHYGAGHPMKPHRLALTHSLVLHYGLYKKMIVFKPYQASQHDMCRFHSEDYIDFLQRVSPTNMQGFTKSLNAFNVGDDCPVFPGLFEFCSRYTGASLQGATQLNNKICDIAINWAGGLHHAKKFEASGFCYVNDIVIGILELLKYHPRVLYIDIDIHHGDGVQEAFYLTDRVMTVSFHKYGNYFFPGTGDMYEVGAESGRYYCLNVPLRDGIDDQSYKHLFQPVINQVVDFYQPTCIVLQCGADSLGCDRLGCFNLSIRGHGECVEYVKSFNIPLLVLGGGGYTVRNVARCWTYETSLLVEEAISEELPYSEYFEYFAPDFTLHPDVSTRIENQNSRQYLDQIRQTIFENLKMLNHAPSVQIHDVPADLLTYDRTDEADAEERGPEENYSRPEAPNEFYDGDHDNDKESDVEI
Sequence of HDAC3 (Q9Y618 395-489 partner limits assumed): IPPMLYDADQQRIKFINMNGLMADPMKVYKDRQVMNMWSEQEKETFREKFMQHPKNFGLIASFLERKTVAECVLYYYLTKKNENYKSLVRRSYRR
Protocol: as §1

HDAC4 = HDAC4 (Homo sapiens, UniProt P56524)
Sequence of HDAC4 (P56524 whole entry): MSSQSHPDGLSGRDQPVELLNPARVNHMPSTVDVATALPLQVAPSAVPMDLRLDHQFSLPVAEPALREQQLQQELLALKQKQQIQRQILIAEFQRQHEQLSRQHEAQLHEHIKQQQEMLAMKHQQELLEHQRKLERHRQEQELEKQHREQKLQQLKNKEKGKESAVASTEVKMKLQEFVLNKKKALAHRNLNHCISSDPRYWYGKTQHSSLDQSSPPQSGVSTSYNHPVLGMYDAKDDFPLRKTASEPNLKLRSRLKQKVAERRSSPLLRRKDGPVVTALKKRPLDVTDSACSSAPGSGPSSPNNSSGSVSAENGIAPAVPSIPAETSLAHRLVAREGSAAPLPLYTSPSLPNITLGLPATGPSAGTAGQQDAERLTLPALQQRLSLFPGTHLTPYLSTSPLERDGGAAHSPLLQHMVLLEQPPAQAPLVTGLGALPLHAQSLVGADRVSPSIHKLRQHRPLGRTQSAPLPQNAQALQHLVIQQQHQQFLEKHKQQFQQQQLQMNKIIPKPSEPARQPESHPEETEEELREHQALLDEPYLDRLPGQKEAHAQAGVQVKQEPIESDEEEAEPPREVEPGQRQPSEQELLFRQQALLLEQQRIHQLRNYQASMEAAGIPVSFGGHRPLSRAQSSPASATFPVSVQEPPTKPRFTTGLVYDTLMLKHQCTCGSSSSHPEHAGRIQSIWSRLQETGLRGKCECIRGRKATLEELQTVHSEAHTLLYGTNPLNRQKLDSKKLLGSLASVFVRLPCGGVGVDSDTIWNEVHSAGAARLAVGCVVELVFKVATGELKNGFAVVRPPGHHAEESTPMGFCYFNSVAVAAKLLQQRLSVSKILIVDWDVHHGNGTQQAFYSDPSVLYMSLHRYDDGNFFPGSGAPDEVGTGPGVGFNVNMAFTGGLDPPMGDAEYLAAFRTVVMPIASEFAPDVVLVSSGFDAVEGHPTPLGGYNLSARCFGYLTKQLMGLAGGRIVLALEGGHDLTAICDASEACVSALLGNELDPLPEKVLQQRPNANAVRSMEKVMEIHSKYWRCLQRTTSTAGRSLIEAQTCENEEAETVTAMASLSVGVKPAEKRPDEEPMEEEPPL
Protocol: as §1

HDAC5 = HDAC5 (Homo sapiens, UniProt Q9UQL6)
Sequence of HDAC5 (Q9UQL6 whole entry): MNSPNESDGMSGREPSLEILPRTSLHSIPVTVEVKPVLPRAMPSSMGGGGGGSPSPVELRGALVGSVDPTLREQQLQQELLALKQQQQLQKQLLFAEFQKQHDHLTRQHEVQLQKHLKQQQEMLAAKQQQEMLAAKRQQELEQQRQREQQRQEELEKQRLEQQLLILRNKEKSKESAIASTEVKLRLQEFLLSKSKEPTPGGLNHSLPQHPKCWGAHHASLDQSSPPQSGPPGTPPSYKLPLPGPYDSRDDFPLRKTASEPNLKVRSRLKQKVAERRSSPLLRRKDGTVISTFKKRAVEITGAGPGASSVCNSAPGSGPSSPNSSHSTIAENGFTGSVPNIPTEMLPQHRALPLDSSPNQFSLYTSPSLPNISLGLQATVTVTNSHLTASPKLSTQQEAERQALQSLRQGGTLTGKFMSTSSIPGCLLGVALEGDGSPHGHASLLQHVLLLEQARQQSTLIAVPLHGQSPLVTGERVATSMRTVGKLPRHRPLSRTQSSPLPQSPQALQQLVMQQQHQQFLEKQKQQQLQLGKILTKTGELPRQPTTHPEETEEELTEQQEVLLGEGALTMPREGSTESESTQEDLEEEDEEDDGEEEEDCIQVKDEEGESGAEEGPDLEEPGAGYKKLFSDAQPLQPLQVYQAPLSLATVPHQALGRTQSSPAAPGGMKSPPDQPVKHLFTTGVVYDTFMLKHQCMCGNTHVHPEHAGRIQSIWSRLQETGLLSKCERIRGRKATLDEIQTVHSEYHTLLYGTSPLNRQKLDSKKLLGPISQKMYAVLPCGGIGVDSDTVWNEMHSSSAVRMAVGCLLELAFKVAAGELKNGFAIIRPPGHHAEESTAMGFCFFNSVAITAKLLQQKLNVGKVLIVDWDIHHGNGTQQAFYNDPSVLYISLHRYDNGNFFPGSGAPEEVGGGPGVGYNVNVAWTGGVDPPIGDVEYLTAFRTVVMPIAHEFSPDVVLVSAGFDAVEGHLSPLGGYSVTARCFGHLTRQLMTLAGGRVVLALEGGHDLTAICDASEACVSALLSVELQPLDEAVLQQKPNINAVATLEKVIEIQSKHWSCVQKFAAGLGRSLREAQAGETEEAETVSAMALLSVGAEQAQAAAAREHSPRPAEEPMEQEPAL
Protocol: as §1

HDAC6 = biological target: T3, HDAC6 (Homo sapiens, UniProt Q9UBN7)
T3 sequence (Q9UBN7 1-1215): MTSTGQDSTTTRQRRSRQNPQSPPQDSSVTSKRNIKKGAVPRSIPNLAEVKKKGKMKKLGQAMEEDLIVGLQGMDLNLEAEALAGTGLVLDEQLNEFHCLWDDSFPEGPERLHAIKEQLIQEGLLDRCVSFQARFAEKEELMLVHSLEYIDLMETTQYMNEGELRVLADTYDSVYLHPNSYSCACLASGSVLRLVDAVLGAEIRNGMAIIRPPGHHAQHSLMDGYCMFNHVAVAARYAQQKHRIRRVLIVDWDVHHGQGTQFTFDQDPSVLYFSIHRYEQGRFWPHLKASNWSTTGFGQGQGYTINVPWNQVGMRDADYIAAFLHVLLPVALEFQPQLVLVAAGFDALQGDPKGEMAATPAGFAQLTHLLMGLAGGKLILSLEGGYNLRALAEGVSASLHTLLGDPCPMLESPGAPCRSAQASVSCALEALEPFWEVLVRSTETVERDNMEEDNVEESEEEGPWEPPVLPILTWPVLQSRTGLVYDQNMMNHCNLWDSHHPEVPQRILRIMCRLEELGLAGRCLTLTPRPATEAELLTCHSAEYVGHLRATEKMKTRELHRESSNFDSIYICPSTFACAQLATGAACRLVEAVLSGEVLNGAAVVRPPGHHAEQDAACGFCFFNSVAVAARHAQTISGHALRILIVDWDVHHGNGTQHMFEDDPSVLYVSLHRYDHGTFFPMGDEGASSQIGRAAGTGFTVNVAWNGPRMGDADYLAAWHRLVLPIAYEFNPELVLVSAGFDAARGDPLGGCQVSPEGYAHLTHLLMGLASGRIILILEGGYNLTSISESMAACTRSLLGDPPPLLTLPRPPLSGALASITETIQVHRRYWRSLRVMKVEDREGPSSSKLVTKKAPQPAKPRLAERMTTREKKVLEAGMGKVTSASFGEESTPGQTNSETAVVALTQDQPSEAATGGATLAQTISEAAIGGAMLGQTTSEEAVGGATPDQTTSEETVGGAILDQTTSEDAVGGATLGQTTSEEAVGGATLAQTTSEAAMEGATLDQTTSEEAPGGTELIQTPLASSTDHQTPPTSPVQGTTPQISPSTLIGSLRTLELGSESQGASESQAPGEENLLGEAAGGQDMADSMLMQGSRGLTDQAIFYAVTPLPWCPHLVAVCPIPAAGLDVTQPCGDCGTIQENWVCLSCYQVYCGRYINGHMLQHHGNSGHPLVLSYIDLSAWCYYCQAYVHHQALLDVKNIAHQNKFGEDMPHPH
Protocol: as §1

HDAC8 = biological target: T4, HDAC8 (Homo sapiens, UniProt Q9BY41)
T4 sequence (Q9BY41 1-377): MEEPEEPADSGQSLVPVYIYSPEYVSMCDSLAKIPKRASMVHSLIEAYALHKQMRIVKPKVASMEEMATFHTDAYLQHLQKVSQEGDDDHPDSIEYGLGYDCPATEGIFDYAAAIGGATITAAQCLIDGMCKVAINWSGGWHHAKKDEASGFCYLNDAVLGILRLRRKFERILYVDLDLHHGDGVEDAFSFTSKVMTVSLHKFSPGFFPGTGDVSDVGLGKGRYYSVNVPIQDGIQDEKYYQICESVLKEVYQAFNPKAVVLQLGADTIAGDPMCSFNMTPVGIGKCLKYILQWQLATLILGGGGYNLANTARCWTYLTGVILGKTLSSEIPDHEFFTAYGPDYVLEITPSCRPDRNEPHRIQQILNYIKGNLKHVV
Protocol: as §1

HDAC7 = biological target: T5, HDAC7 (Homo sapiens, UniProt Q8WUI4)
T5 sequence (Q8WUI4 1-952): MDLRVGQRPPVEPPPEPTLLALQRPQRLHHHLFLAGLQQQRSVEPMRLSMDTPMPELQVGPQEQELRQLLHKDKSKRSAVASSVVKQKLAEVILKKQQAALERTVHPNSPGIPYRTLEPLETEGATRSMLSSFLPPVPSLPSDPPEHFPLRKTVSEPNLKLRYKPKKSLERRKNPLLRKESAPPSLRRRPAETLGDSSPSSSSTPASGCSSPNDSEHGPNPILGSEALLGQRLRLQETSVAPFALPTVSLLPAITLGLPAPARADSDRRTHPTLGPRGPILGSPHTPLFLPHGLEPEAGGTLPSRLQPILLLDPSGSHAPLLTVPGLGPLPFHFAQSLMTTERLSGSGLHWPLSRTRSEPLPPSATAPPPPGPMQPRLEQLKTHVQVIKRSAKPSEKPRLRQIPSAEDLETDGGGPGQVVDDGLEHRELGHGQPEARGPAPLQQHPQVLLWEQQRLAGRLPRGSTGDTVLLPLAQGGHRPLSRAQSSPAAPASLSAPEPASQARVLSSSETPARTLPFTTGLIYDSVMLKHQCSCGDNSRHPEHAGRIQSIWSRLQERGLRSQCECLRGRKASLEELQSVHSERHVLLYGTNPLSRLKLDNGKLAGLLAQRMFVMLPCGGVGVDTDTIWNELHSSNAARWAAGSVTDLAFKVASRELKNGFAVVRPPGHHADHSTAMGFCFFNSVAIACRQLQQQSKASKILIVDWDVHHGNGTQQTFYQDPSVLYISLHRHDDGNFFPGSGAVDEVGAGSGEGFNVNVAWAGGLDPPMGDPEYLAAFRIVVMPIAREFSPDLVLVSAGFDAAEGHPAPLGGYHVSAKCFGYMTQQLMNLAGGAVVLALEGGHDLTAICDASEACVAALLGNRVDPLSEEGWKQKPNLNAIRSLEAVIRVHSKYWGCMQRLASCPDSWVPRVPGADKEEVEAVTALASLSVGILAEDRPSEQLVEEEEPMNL
Protocol: as §1, with “curves.” for “curves. TSA and SAHA were used as reference compounds.”

HDAC9 = HDAC9 (Homo sapiens, UniProt Q9UKV0)
Sequence of HDAC9 (Q9UKV0 whole entry): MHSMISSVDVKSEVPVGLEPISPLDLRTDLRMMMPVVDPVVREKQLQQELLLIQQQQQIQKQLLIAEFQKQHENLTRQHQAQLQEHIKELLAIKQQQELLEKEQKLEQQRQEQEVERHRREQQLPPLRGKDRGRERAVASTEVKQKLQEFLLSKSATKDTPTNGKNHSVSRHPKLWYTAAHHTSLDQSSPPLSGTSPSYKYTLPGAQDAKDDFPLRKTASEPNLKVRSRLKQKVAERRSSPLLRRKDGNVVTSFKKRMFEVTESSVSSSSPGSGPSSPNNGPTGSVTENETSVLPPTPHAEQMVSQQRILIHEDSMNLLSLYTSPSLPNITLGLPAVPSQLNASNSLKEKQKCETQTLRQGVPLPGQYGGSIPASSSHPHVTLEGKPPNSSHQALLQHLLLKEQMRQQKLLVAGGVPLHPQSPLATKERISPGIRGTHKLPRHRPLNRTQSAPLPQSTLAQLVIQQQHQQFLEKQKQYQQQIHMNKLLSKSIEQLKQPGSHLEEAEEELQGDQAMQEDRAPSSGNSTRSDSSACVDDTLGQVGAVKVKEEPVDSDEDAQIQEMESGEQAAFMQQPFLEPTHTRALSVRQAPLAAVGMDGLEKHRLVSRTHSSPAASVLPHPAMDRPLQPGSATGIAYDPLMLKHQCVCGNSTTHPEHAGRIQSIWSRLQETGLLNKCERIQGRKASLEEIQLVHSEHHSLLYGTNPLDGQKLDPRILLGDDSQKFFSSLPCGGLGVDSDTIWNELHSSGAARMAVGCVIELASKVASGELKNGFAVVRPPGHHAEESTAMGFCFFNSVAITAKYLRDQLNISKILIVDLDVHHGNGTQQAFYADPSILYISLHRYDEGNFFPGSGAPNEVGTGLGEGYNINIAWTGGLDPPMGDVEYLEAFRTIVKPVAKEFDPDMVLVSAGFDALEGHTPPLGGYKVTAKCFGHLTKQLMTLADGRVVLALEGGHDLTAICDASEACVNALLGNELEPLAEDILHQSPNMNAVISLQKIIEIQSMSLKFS
Protocol: as §1, with “curves.” for “curves. TSA and SAHA were used as reference compounds.”

Sequence of HDAC1 (Q13547 whole entry): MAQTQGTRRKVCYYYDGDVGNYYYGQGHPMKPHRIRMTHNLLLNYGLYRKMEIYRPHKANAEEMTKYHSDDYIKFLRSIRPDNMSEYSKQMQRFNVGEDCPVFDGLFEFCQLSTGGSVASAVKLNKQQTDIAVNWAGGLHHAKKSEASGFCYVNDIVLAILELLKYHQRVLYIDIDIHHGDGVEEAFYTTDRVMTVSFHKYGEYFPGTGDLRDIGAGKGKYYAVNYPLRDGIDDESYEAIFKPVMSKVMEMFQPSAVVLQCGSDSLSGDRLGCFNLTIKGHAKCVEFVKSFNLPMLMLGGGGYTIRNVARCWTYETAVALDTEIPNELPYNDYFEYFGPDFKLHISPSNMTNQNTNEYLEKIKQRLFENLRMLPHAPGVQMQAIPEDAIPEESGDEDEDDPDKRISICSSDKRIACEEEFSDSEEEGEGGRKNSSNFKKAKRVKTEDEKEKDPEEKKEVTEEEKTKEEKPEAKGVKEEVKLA

IC50 (HDAC1) [nM] | IC50 (HDAC10) [nM] | IC50 (HDAC11) [nM] | IC50 (HDAC2) [nM] | IC50 (HDAC3) [nM] | IC50 (HDAC4) [nM] | IC50 (HDAC5) [nM] | IC50 (HDAC6) [nM] | IC50 (HDAC8) [nM] | IC50 (HDAC7) [nM] | IC50 (HDAC9) [nM] | Compound
245 | 627 | 379 | 584 | 331 | 1690 | 496 | 4.4 | 297 | 2230 | 602 | (S)-2-(6,18-dioxo-5,6,7,9,10,11,12,13,18,19-decahydrobenzo[5,6][1,4,7]-oxadiazacyclo-tetradecino[10,9-b]indol-7-yl)-N-hydroxyacetamide [Example 3]
864 | 2290 | 948 | 3280 | 1110 | 5330 | 1660 | 59 | 534 | 4300 | 2020 | COc1cc2cc(c1)C(=O)Nc1ccccc1NC(=O)[C@H](CCCCCC(=O)NO)OC/C=C\2 [Example 1, 6-((Z)—(S)-19-methoxy-2,11-dioxo-13-oxa-3,10-diaza-tricyclo[15.3.1.0*4,9*]henicosa-1(21),4,6,8,15,17,19-heptaen-12-yl)-hexanoic hydroxamic acid]
1340 | 1880 | 1110 | 2530 | 885 | 3480 | 1340 | 75 | 682 | 2070 | 1140 | COc1cc2cc(c1)C(=O)Nc1ccccc1NC(=O)[C@@H](CCCCCC(=O)NO)OC/C=C\2 [Example 2, 6-((Z)—(R)-19-methoxy-2,11-dioxo-13-oxa-3,10-diaza-tricyclo[15.3.1.0*4,9*]henicosa-1(21),4,6,8,15,17,19-heptaen-12-yl)-hexanoic hydroxamic acid]
